Data set [1] has as its system human PRP. The data set can be described thus: Tissue factor-induced platelet aggregation assay. The class given is cell-based. The note with it: FIGS. 1 and 2. An excerpt: Example E is a tissue factor-induced platelet aggregation assay. The conditions in this assay mimic the physiological events during thrombus formation. In this assay, platelet aggregation in human PRP was initiated by the addition of tissue factor and CaCl2. Tissue factor, the initiator of the extrinsic coagulation cascade, is highly elevated in human atherosclerotic plaque. Exposure of blood to tissue factor at the atherosclerotic site triggers a robust generation of thrombin and induces the formation of obstructive thrombi.
The ability of PAR1 or PAR4 antagonists to inhibit platelet aggregation induced by endogenous thrombin can be tested in a tissue factor driven aggregation assay. Aggregation is initiated by addition of CaCl2 and recombinant human tissue factor, which results in the generation of thrombin through activation of the coagulation pathway in the plasma. Anticoagulant agents such as corn trypsin inhibitor (Haematologic Technologies, Essex Junction, Vt.) at 50 μg/ml and PEFABLOC® FG (Centerchem, Norwalk, Conn.) are also added to the sample to prevent fibrin clot formation during the time of the study. Platelet aggregation is monitored using standard instrumentation including optical aggregometer or impedance aggregometer.

Data set [2] has as its target T1, PAR4 (Homo sapiens (Human), UniProt Q96RI0). The data set can be described thus: FLIPR assay in PAR4-expressing HEK293 cells (calcium mobilization). The class given is cell-based. The note with it: PAR4 antagonist activity, FLIPR assay as described in Example A.
The target of data set [3] is T1, PAR4. As to the kind of experiment: Gamma thrombin induced platelet aggregation assay (PRP assay). The class given is cell-based. The note with it: γ-thrombin induced platelet aggregation in PRP.
Data set [4] deals with human washed platelets. The data set can be described thus: Alpha-thrombin induced platelet aggregation assay in human washed platelets. It is filed as cell-based. As to conditions: 0.1 h, read-out: IC50 for the inhibition of platelet aggregation. The protocol: Example D is an alpha-thrombin-induced platelet aggregation assay. Alpha-thrombin activates both PAR1 and PAR4. The ability of a selective PAR4 antagonist of the present invention, Example 13, to inhibit platelet aggregation was measured using a standard optical aggregometer.
Human blood was collected in ACD (85 mM tri-sodium citrate, 78 mM citric acid, 110 mM D-glucose, pH 4.4) at a ratio of 1.4 ml per 10 ml blood. PRP was isolated by centrifugation at 170 g for 14 minutes and platelets were further pelleted by centrifugation at 1300 g for 6 minutes. Platelets were washed once with 10 ml ACD containing 1 mg/ml bovine serum albumin. Platelets were resuspended at ˜2.5×10^8/ml in Tyrode's Buffer (137 mM NaCl, 2 mM KCl, 1.0 mM MgCl2, 1 mM CaCl2, 5 mM glucose, 20 mM HEPES pH 7.4).
The ability of a PAR4 antagonist (Example 13) compound to inhibit platelet aggregation induced by alpha-thrombin was tested using human washed platelets. Example 13 was pre-incubated with washed platelets for 20 min. Aggregation was initiated by addition of 1.5 nM alpha-thrombin (Haematologic Technologies, Essex Junction, Vt.) to 300 μl of washed platelets at stirring speed of 1000 rpm. […] IC50 was calculated using vehicle control as 0% inhibition.

The conditions of data set [5]: ACS patients; cited from earlier work.
Data set [6] addresses PAR1 (Homo sapiens (Human), UniProt P25116). As to the kind of experiment: FLIPR PAR1 counter screen (SFFLRR-induced calcium mobilization) in HEK293 cells. It is filed as cell-based. The note with it: Example A, routinely tested; read-out: EC50 of agonist peptide in the assay (PAR1 counter screen). In general terms: A counterscreen serves to expose hits that act by an unwanted route or on another target.

Results on 28 compounds are retold here after patent US9518064B2, “Imidazothiadiazole and imidazopyridazine derivatives as protease activated receptor 4 (PAR4) inhibitors for treating platelet aggregation” (BRISTOL-MYERS SQUIBB COMPANY, priority 2012, dated 2016).

Where no end group is shown, it is not given here.

T1 sequence (Q96RI0 18-385): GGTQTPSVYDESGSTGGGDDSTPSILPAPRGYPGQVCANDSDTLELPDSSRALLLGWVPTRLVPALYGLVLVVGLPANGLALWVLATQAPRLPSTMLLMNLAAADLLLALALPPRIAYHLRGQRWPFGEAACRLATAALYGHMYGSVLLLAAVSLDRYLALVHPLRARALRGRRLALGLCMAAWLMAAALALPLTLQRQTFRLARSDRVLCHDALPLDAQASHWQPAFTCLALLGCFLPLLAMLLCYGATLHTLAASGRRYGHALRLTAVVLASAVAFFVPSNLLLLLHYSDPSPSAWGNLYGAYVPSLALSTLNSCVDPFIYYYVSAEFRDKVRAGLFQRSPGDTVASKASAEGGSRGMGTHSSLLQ
Chain of PAR1 (P25116 22-425): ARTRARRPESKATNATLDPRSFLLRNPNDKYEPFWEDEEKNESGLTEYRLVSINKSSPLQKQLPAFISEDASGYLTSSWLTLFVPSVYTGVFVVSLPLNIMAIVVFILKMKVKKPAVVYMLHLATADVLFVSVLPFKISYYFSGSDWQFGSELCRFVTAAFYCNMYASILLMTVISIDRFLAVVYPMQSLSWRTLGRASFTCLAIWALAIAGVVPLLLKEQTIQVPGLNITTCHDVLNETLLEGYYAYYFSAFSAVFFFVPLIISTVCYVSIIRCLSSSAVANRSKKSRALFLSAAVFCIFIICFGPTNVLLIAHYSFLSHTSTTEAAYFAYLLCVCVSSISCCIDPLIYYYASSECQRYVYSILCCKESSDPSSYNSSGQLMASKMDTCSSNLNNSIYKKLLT

For `COc1cc(OCc2cccc(-c3ccc(C#N)nc3)c2)c2cc(-c3cn4nc(OC)sc4n3)oc2c1` [Example 13], in data set [1], the “inhibition of tissue factor-induced platelet aggregation” value is recorded as “effective inhibition”. In addition, the IC50 is 1.74 nM in data set [2], 4.91 nM in data set [3] and 11 nM in data set [4]. Regarding `COc1cc(OCc2cccc(-c3ccc4c(c3)OCO4)c2)c2cc(-c3cn4nc(OC)sc4n3)oc2c1` [Example 18], the 50% inhibitory concentration (IC50) in data set [2] came out at 3.5 nM; in data set [3], 68.2 nM. `COc1cc(OCc2cccc(-c3ccc4nccn4c3)c2)c2cc(-c3cn4nc(OC)sc4n3)oc2c1` [Example 23] had an IC50 in data set [3] of 629 nM.

As to `COc1cc(OCc2cccc(-c3cccnc3C#N)c2)c2cc(-c3cn4nc(OC)sc4n3)oc2c1` [Example 26], in data set [3], the IC50 turned out to be 970 nM.

In turn, `COc1cc(OCc2cccc(-c3ccc([N+](=O)[O-])nc3)c2)c2cc(-c3cn4nc(OC)sc4n3)oc2c1` [Example 28] showed an IC50 in data set [3] of 24.6 nM. On the same count and under the same terms, in the case of `COc1cc(OCc2cccc(-c3ccc(C#N)c(F)c3)c2)c2cc(-c3cn4nc(OC)sc4n3)oc2c1` [Example 30] it was 125 nM.

In turn, `COc1cc(OCc2cccc(-c3ccc4c(c3)OCCO4)c2)c2cc(-c3cn4nc(OC)sc4n3)oc2c1` [Example 31] gave an IC50 in data set [3] of 49.9 nM. With `COc1cc(OCc2cccc(-c3ccc(F)c(C)n3)c2)c2cc(-c3cn4nc(OC)sc4n3)oc2c1` [Example 32], the IC50 in data set [2] amounted to 0.57 nM; in data set [3] it was 2770 nM. The corresponding values for `COc1cc(OCc2cccc(-c3cnsc3)c2)c2cc(-c3cn4nc(OC)sc4n3)oc2c1` [Example 48] are 1.03 nM and 65.9 nM. For the compound `COc1cc(OCc2cccc(-c3ccc(N4CCOCC4)nc3)c2)c2cc(-c3cn4nc(OC)sc4n3)oc2c1` [Example 59], the results for the half-inhibitory concentration (IC50) in data set [2] and in data set [3] were 4.81 nM and 2670 nM, respectively.

`COc1cc(OCc2cccc(-c3ccc(C(=O)OC(C)(C)C)nc3)c2)c2cc(-c3cn4nc(OC)sc4n3)oc2c1` [Example 60]: the IC50 stood at 4.18 nM in data set [2] and 81.3 nM in data set [3]. On the same counts, the results for `COc1cc(OCc2cccc(-c3cncnc3)c2)c2cc(-c3cn4nc(C(C)(F)F)sc4n3)oc2c1` [Example 63, 2-(1,1-Difluoroethyl)-6-(6-methoxy-4-((3-(pyrimidin-5-yl)benzyl)oxy)benzofuran-2-yl)imidazo[2,1-b][1,3,4]thiadiazole] are 4.04 nM and 2430 nM. Compound `COc1cc(OCc2cccc(-c3cncnc3)c2)c2cc(-c3cn4nc([C@H](C)F)sc4n3)oc2c1` [Example 64, (S)-2-(1-Fluoroethyl)-6-(6-methoxy-4-((3-(pyrimidin-5-yl)benzyl)oxy)benzofuran-2-yl)imidazo[2,1-b][1,3,4]thiadiazole] came in with an IC50 in data set [3] of 490 nM. `COc1cc(OCc2cccc(-c3ccc(F)nc3)c2)c2cc(-c3cn4nc(C(C)(F)F)sc4n3)oc2c1` [Example 68]: the IC50 in data set [2] stood at 3.37 nM; in data set [3], 2230 nM.

`COc1cc(OCc2cccc(-c3ccc(F)cn3)c2)c2cc(-c3cn4nc([C@H](C)F)sc4n3)oc2c1` [Example 69] registered an IC50 in data set [3] of 13.1 nM.

Consider `COc1cc(COc2cc(OC)cc3oc(-c4cn5nc(OC)sc5n4)cc23)cc(-c2cnc(OC)nc2)c1` [Example 71], for which the values for the half-inhibitory concentration (IC50) in data set [2] and in data set [3] were 0.5 nM and 3.61 nM, respectively. The corresponding values for `COc1nn2cc(-c3nc4c(OCc5cccc(-c6ccoc6)c5)cccc4o3)nc2s1` [Example 81, 4-((3-(Furan-3-yl)benzyl)oxy)-2-(2-methoxyimidazo[2,1-b][1,3,4]thiadiazol-6-yl)benzo[d]oxazole] are 22.1 nM and 5000 nM. On the same counts, the results for `COc1cc(OCc2cccc(C3=CCOCC3)c2)c2cc(-c3cn4nc(OC)sc4n3)oc2c1` [Example 93] are 0.71 nM and 105 nM. On the same counts, the results for `COc1cc(OCc2ccnc(-c3ccnc(F)c3)n2)c2cc(-c3cn4nc(OC)sc4n3)oc2c1` [Example 97, 6-(4-((2-(2-Fluoropyridin-4-yl)pyrimidin-4-yl)methoxy)-6-methoxybenzofuran-2-yl)-2-methoxyimidazo[2,1-b][1,3,4]thiadiazole] are 0.36 nM and 2.97 nM. Turning to `COc1cc(OCc2ccnc(-c3ccc(C(=O)N(C)C)cc3)n2)c2cc(-c3cn4nc(OC)sc4n3)oc2c1` [Example 98], the results for the IC50 in data set [2] and in data set [3] were 0.29 nM and 1.67 nM, respectively. The corresponding values for `COc1ccc(-c2nccc(COc3cc(OC)cc4oc(-c5cn6nc(OC)sc6n5)cc34)n2)cc1` [Example 100] are 0.76 nM and 1.8 nM. On to `COc1cc(OCc2cccc(C3(O)CCOCC3)n2)c2cc(-c3cn4nc([C@H](C)F)sc4n3)oc2c1` [Example 110, (S)-4-(6-(((2-(2-(1-Fluoroethyl)imidazo[2,1-b][1,3,4]thiadiazol-6-yl)-6-methoxybenzofuran-4-yl)oxy)methyl)pyridin-2-yl)tetrahydro-2H-pyran-4-ol], for which the IC50 in data set [2] turned out to be 0.41 nM; in data set [3], 87.6 nM.

Turning to `COc1cc(OCc2cccc(C3(OC)CCOCC3)n2)c2cc(-c3cn4nc([C@H](C)F)sc4n3)oc2c1` [Example 112, (S)-2-(1-Fluoroethyl)-6-(6-methoxy-4-((6-(4-methoxytetrahydro-2H-pyran-4-yl)pyridin-2-yl)methoxy)benzofuran-2-yl)imidazo[2,1-b][1,3,4]thiadiazole], the IC50 in data set [2] amounted to 0.36 nM. The same measure, in the same setting: in the case of `COc1cc(OCc2cccc(C3(F)CCOCC3)n2)c2cc(-c3cn4nc(OC)sc4n3)oc2c1` [Example 113, 6-(4-((6-(4-Fluorotetrahydro-2H-pyran-4-yl)pyridin-2-yl)methoxy)-6-methoxybenzofuran-2-yl)-2-methoxyimidazo[2,1-b][1,3,4]thiadiazole] it was 0.35 nM; in that of `COc1cc(OCc2cccc(C3(F)CCOCC3)n2)c2cc(-c3cn4nc([C@H](C)F)sc4n3)oc2c1` [Example 114, (S)-2-(1-Fluoroethyl)-6-(4-((6-(4-fluorotetrahydro-2H-pyran-4-yl)pyridin-2-yl)methoxy)-6-methoxybenzo-furan-2-yl)imidazo[2,1-b][1,3,4]thiadiazole], 0.31 nM.

As to `CCOC(=O)N[C@@H]1CC[C@@H]2[C@@H](C1)C[C@H]1C(=O)O[C@H](C)[C@H]1[C@H]2/C=C/c1ccc(-c2cccc(F)c2)cn1` [vorapaxar], in data set [5], the “reduction of cardiovascular events” value was “did not significantly reduce” and the “risk of major bleeding” value is “significantly increased”. As to SFFLRR [SFFLRR], the EC50 in data set [6] was 600 nM.

As to “trans-cinnamoyl-Phe(4-F)-Phe(4-guanidino)-Leu-Arg-Arg-NH2 [reference compound]”, the “inhibition of tissue factor-induced platelet aggregation” value in data set [1] is reported as “effective inhibition”.

For orientation: IC50 means the midpoint of a concentration-inhibition curve. One may read the EC50 as the concentration at which the effect is half-maximal.
